According to patent US6069150A, “Use of derivatives of tetrahydro-beta-carbolines as antimetastatic agents” (F. Hoffman-La Roche AG, priority 1996, dated 2000):
Where two headings read alike, the source gives them in different places.

How the values were obtained:
[1] = target: T1, MMP8 (human neutrophil collagenase) (Homo sapiens, UniProt P22894); assay: in vitro test of inhibition of MMP8 (human neutrophil collagenase), fluorescent substrate degradation by catalytic domain of MMP8; assay type: biochemical; conditions: for inhibition at 0.1 µg/mL: conc. 0.1 μg/ml
T1 construct: by means of the catalytic domain of MMP8
T1 sequence (P22894 100-262 limits assumed): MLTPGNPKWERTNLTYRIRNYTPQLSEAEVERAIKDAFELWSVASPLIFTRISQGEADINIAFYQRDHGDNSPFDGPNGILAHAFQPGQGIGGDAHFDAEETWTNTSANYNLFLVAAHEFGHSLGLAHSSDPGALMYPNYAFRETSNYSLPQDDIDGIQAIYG
Source text: The compounds of the present invention have been tested in a pharmacological "in vitro" test of inhibition of MMP8 (human neutrophil collagenase). Said test provides for the determination via fluorescence of the inhibition of the degradation of a fluorescent substrate (DNP-Pro-Leu-Gly-Leu-Trp-Ala-D-Arg-NH2, M1855 Bachem) by means of the catalytic domain of MMP8.
1) DNP-substrate=DNP-Pro-Leu-Gly-Leu-Trp-Ala-D-Arg-NH2 (M1855 Bachem), M.W. 977.1 g/mol, concentration 25 (μM in DMSO; 2) measurement buffer=50 mM TRIS/100 mM NaCl/10 mM CaCl2.2H2 O, adjusted at pH 7.6 with hydrochloric acid. 3) Enzyme=catalytic domain of MMP8 (92 Kda), concentration 0.055 mg/ml in TRIS buffer. Substrate and enzyme are maintained at 0° C. with ice bath.
Total volume=1 ml of solution kept under stirring in a cuvette.
0.01 ml of inhibitor (10 (g/ml).
It is measured the fluorescence at 346 nm both of the control solution (without inhibitor) and of the solution containing the inhibitor. The inhibition of the catalytic activity of MMP8 results in the decrease in the DNP-substrate lysis, with related decrease in the fluorescence of the solution.
The percentage of inhibition is expressed by the following formula:
% Inhibition=100-(rel. unit/timewith inhibitor /rel.
By repeating the experiment at different concentrations of inhibitor it is possible to determine the IC50 value.

[2] = tested on: human fibrosarcoma HT1080 cells; assay: test of chemoinvasion (HT1080 cells through Type IV collagen coated Transwell filters); assay type: cell-based
Method: The compounds of the present invention have also shown activity in an "[…]" test of chemoinvasion. In the test of chemoinvasion the Costar Transwell chambers for cell culture (diameter: 6.5 mm; pore size: 8 μm) are coated with 100 μl of Type IV collagen (diluted solution 50 μg/ml, then evaporation overnight). With the same procedure the chambers are coated with a second layer of Type IV collagen (100 μl of solution at concentration 50 μg/ml). Before use, the chambers are rinsed twice with sterile water and incubated for about 1 hour at 37° C. in a serum-free medium (DMEM).
The human fibrosarcoma HT1080 cells are harvested by trypsin-EDTA treatment, washed with DMEM+10% FCS and incubated for at least 30 minutes at 37° C. in the same medium. The cells are then washed with serum-free DMEM and resuspended in serum-free DMEM added with 0.1% BSA (fraction V), counted and diluted to obtain a final density of 3×10^5 cell/ml. […]
Incubated filters are then washed with PBS, the cells are fixed 15 min in 4% paraformaldehyde, permeabilized in methanol (10 minutes, -20° C.) and stained with May-Grunwald-Giemsa. Cells which adhere to the top of the filters are removed with a cotton swab, filters are detached from the bottom of the chambers and analyzed with microscope to determine the number of cells on the lower side of the filters. […]

[3] = MMP8 catalytic domain, DNP-substrate, fluorescence at 346 nm, read-out: IC50 (converted)

SMILES	IC50 [1, 3]	inhibition at 10 µg/mL ([1]; conc. 10 μg/ml)	IC50 ([2]; HT-1080, 24 h + 24 h)	inhibition at 0.1 µM ([2]; HT-1080, conc. 10^-7 M, 24 h + 24 h)	IC50 [1]	inhibition at 0.1 µg/mL [1]
COc1ccc2[nH]c3c(c2c1)CCNC3C(=O)O (centres unmarked) [6-methoxy-1,2,3,4-tetrahydronorharman-1-carboxylic acid]	203 nM	100%	200 nM	56.5%		
COc1ccc2[nH]c3c(c2c1)CCNC3 [6-methoxy-1,2,3,4-tetrahydronorharmane]					297 nM	100%
O=C(O)C1Cc2c([nH]c3ccccc23)CN1 (centres unmarked) [1,2,3,4-tetrahydronorharman-3-carboxylic acid]	324 nM					100%
